In patent US9745273B2, “Phenazine derivatives as anti-neoplastic agents and anti-infective agents” (Universitetet I Oslo, priority 2013, dated 2017):

How the values were obtained:
Solubility in water = type: physicochemical
Excerpt: In the prior art, these problems are not properly addressed. […] In DE 2016467, DE 2115660, U.S. Pat. No. 3,929,790, U.S. Pat. No. 3,937,707, WO 2008/089283, and in Alonso et al, Chem. Comm. 2004, 41, 412-413, methods to alkylate iodinin or myxin via their alkali salts is described. However, the functional groups introduced were alkyl groups, rendering the derivatives less water soluble than the parent compounds. No discussion of improvement in water solubility was described.

mouse sarcoma model = details: in vivo; cited from earlier work
[1] = Solubility in biocompatible and organic solvents; type: physicochemical
Excerpt: However, production of nano-carriers by emulsion-evaporation merit that the compound to be encapsulated must be dissolved in an organic solvent that is immiscible with water. The present invention enables the production of iodinin-encapsulated nanocarriers—iodinin and a biodegradable polymer can be dissolved in chloroform and mixed with water to make a nano-suspension, and organic solvent evaporated to co-precipitate the polymer with iodinin. To improve the nanonization of iodinin, a polymer can be precipitated to produce nanoparticles. The advantage of incorporating iodinin itself into a biodegradable polymer is that the drug load in the formulation may be higher. The particles may be coated with monoclonal antibodies, e.g. CD11 or CD33 against AML.

[2] = test system: leukaemia cell lines and AML-patient blasts; details: cited from earlier work
[3] = test system: peripheral blood leukocytes (PBL); details: at comparable anti-AML activity; cited from earlier work
rat cardiomyoblasts = details: at comparable anti-AML activity; cited from earlier work
blood platelets = details: at comparable anti-AML activity; cited from earlier work
intestinal mucosa = details: mouse, direct infusion of supra-saturated solution into the gut through a tube; cited from earlier work
certain other bacteria = details: cited from earlier work

Structure (SMILES)	solubility in water (Solubility in water)	activity against a mouse sarcoma model (mouse sarcoma model)	solubility in biocompatible solvents ([1]; biocompatible solvents)	solubility in organic solvents ([1]; organic solvents such as toluene and chloroform)	potency against leukaemia cell lines and AML-patient blasts [2]	effect on AML cells ([2]; iodinin extracted from marine actinomycetes bacteria)	toxicity towards peripheral blood leukocytes (PBL) versus DNR [3]	toxicity towards rat cardiomyoblasts versus DNR (rat cardiomyoblasts)	toxicity towards blood platelets versus DNR (blood platelets)	intestinal symptoms / histological alteration of the intestinal mucosa (intestinal mucosa)	inhibition of growth of other bacteria (certain other bacteria)
COc1cccc2c1[n+]([O-])c1cccc(O)c1[n+]2[O-] [myxin]	practically insoluble	low activity	–	–	–	–	–	–	–	–	–
[O-][n+]1c2cccc(O)c2[n+]([O-])c2cccc(O)c21 [iodinin, 1,6-dihydroxyphenazine-5,10-dioxide]	practically insoluble	low activity	poorly soluble	soluble	particularly potent	pronounced effect	less toxic than DNR	less toxic than DNR	less toxic than DNR	failed to cause any intestinal symptoms or histologically detectable alteration of the intestinal mucosa	inhibit the growth
